Where two headings read alike, the source gives them in different places.
Assays:
[1] = system: MV-4-11 cells; assay: Anti-proliferative activity against MV-4-11 cells (cell viability chemiluminescence); type: cell-based; conditions: MV4-11, 72 h, MV-4-11 human monocytic leukemia cells, three days of exposure
Description: This study utilized a cell proliferation assay to analyze the cytotoxicity of MV-4-11 human monocytic leukemia cells after three days of exposure to NMT1 inhibitors. The MV-4-11 cell line was purchased from Nanjing Cobuilder Biotechnology Co., Ltd., and cultured in IMDM medium (Viva cell) in an incubator (Thermo) at 37 °C with 5% CO2. In this experiment, NMT1 inhibitors were dissolved in DMSO to obtain 600 µM stock solutions. Dose-response solutions were prepared with a top endpoint compound concentration of 3 µM, followed by three-fold serial dilutions in DMSO, totaling eight data points. The final concentration of DMSO was 0.5%.
MV-4-11 cells were seeded into a white 96-well plate, 80 µL of cell suspension per well, containing 6000 MV-4-11 cells. The cell plate was placed in the CO2 incubator for overnight culture. Then, 20 µL of NMT1 inhibitor solutions at different concentrations were added to the wells. The 96-well plate was placed back into the incubator for three days. Another cell plate was prepared, and the signal was read on the day of drug addition to serve as the maximum value (Max value in the equation below) for data analysis. To this cell plate, 25 µL of cell viability chemiluminescence detection reagent was added per well, followed by incubation at room temperature for 10 minutes to stabilize the luminescence signal. A multi-label analyzer was used for reading.
The raw data were converted into inhibition rates using the equation (Sample - Min) / (Max - Min) * 100%. The IC50 values were then determined by fitting a four-parameter curve (using the "log(inhibitor) vs. response - Variable slope" model in GraphPad Prism). Min: wells treated with 0.5% DMSO; Max: Day 0 wells. Table 1 provides the inhibitory activity of the compounds of the invention on MV-4-11 cell proliferation. Table 1: Compound Inhibitory Activity against NMT1 Enzyme (IC50) and Anti-proliferative Activity against MV-4-11 Cell line (IC50)

[2] = system: MV-4-11 tumors; assay: In vivo anti-tumor efficacy in MV-4-11 xenograft mouse model; conditions: female BALB/c nude mice, PO QD 30 mg/kg, Figure 2
Source text: (§1) To evaluate the effect of the compounds of the present invention on tumor growth, an MV-4-11 human myelomonocytic leukemia xenograft mouse model was established. Female BALB/c nude mice were procured from Shanghai Jihui Laboratory Animal Care Co., Ltd. Upon arrival, the mice were 6-7 weeks old and weighed 18-22 g. They were housed in specific pathogen-free (SPF) individually ventilated cages (IVC) at a density of 2-6 mice per cage, with ad libitum access to standard diet and water. The housing environment was maintained at 20 - 26 °C (68 - 79 °F) with a relative humidity of 40-70%, under a 12-hour light/dark cycle (lights on from 05:00 to 17:00). The study commenced after a one-week acclimatization period.
(§2) Human myelomonocytic leukemia MV-4-11 cells (ATCC, CRL-9591) were maintained in suspension culture using IMDM medium (Gibco, 12440-053) supplemented with 10% heat-inactivated fetal bovine serum (FBS; Gibco, 10099-141C) at 37 °C in a 5% CO2 atmosphere. Cells were passaged 2-3 times per week. Upon reaching the exponential growth phase, cells were harvested, counted, and inoculated subcutaneously into the right dorsal flank of female nude mice. Each mouse received a 200 µL suspension containing 8 × 10^6 MV-4-11 cells (100 µL cell suspension + 100 µL Matrigel basement membrane matrix, Corning, 354234). Thirteen days post-inoculation, when subcutaneous tumor volumes reached 100 - 300 mm^3 , tumor-bearing mice with appropriate morphology and uniform size were selected. Using stratified randomization, mice were assigned to experimental groups (n = 5 per group). Oral administration (PO, once daily [QD]) was initiated on the day of grouping, with all compounds of the present invention dosed at 30 mg/kg. During the dosing period, tumor diameters were measured twice weekly using digital calipers, and body weights were recorded. In the posttreatment observation period, tumor diameters and body weights were measured once weekly. Tumor volume (V) was calculated using the formula: V = 0.5 *a * b^2 , where a represents the long diameter and b represents the short diameter of the tumor.
(§3) The anti-tumor efficacy of the compounds was evaluated using the tumor growth inhibition percentage (TGI%), calculated by the formula: TGI(%) = [1 - (TVi - TV0) / (TVVi - TVV0)] *100%, where TV0 and TVV0 represent the mean tumor volumes on day 0 for the treatment and control groups, respectively, and TVi and TVVi represent the mean tumor volumes on day i for the treatment and control groups, respectively. Data were plotted using GraphPad Prism software. Tumor volume and body weight data are expressed as mean ± SEM and plotted as a function of time.

[3] = target: T1, NMT1 enzyme (Homo sapiens, UniProt P30419); assay: Inhibitory activity on NMT1 enzyme catalysis (fluorescence intensity assay); type: biochemical
T1 sequence (P30419 1-496): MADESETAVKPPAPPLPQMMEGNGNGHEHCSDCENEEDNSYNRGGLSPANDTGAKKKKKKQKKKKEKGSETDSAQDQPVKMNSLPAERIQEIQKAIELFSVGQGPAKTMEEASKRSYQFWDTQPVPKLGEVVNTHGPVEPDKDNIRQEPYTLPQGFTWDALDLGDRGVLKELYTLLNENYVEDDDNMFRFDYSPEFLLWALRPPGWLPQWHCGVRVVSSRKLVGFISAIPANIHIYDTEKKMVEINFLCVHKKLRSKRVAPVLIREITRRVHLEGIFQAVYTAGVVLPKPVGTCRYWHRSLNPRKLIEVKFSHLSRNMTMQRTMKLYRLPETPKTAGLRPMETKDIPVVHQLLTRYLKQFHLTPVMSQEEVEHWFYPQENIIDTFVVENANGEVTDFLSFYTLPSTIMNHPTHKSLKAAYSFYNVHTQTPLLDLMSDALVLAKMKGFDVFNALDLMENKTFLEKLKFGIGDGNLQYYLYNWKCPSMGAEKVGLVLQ
Description: This study evaluated the ability of the compounds of the invention to inhibit NMT1 catalytic activity in vitro. […] The final concentration of the NMT1 enzyme was 6 nM, the final concentration of CPM (Reactive thiol fluorescence probe, Invitrogen, D346) was 1 µM, the final concentration of HSPP60 SRC was 20 µM, and the final concentration of DMSO was 0.5%.
Compounds were dissolved in DMSO to obtain 10 mM stock solutions. Dose-response solutions were prepared with a top endpoint compound concentration of 3 mM, followed by three-fold serial dilutions in DMSO, totaling ten data points. […] Then, 2.5 µL of the NMT1 enzyme working solution was added to the 384-well assay plate, followed by incubation at 25 °C for 10 minutes. Subsequently, 5 µL of the CPM and myristoyl-CoA working solution was added, the plate was centrifuged at 1000 rpm for 1 minute, and then 2.5 µL of the HSPP60 SRC working solution was added to initiate the reaction. The reaction was incubated at 25 °C for 45 minutes.
The IC50 curve of the compounds was fitted using the software XLfit 5.5.0 according to the nonlinear regression equation.

[4] = Body weight of MV-4-11 xenograft model mice (tolerability); type: in vivo; conditions: female BALB/c nude mice, PO QD 30 mg/kg; for Body weight: Figure 1
Source text: as §1, §2, §3

[5] = Plasma concentrations in mice following oral administration; conditions: for concentration at 1 h / concentration at 4 h / concentration at 8 h: ICR, mouse, po, 10 mg/kg
Source text: This study evaluated the plasma concentrations of the compounds of the present invention in mice. ICR mice were procured from JOINN Laboratories (Suzhou) Co., Ltd. At the initiation of dosing, the animals were 6-8 weeks old and weighed 18-25 g. Mice were housed in transparent plastic cages (400 mm*240 mm*200 mm). The animal facility maintained a 12-hour light/12-hour dark cycle (lights on 07:00-19:00) using fluorescent lighting. The dark period may be intermittently interrupted as required for study-related activities. Ambient temperature and relative humidity were controlled within 20-26 °C and 40-70%, respectively. Animals were fed certified rodent chow and provided with drinking water filtered and sterilized through an ultrapure water system. All animals had ad libitum access to water throughout the study. Animals were fasted for at least 12 hours prior to dosing, and food was restored 4 hours post-dosing.
Prior to dosing, body weights were recorded, and healthy animals with similar weights were selected and randomly assigned to groups (n = 3 per group) based on body weight. The compounds were formulated in a 0.5% aqueous carboxymethyl cellulose (CMC) solution and administered orally at a single dose of 10 mg/kg. Blood samples (≥0.2 mL) were collected via venipuncture at 1 h and 4 h post-dose into EDTA-K2 anticoagulant tubes. Tubes were gently inverted to mix, immediately placed in an ice-water bath, and rapidly centrifuged at 4,000 rpm for 10 min at 4 °C to separate plasma. Plasma was stored at -70 °C until analysis.
Calibration curve and QC plasma samples: Working solutions for the calibration curve and QC samples were prepared using 80% methanol in water (Thermo Fisher) as the diluent. To prepare plasma calibration standards and QC samples, 5 µL of each working solution was added to 45 µL of blank plasma and mixed. To the prepared calibration and QC samples, 300 µL of internal standard solution (tolbutamide at 8 µg/mL in acetonitrile, Thermo Fisher) was added. […] The supernatant was collected and analyzed by liquid chromatography-tandem mass spectrometry (LC-MS/MS; AB Sciex API 5000).
Plasma sample pretreatment: After thawing at room temperature, 50 µL of each plasma sample was mixed with 300 µL of the internal standard solution (tolbutamide at 8 µg/mL in acetonitrile, Thermo Fisher). […] The supernatant was collected and analyzed by LC-MS/MS (AB Sciex API 5000).
Raw chromatograms, concentrations, and accuracy data were generated using Analyst software version 1.6.3.

[6] = 6 nM NMT1 enzyme, 1.25 µM myristoyl-CoA, 20 µM HSPP60 SRC peptide, 45 minutes at 25 °C, read-out: NMT1 (IC50)

| Structure (SMILES) | IC50 [1] [nM] | Tumor volume / growth of MV-4-11 tumors [2] | IC50 [3, 6] [nM] | Body weight [4] | concentration at 1 h [5] [ng/mL] | concentration at 4 h [5] [ng/mL] | concentration at 8 h [5] [ng/mL] | IC50 ([1]; Homo sapiens) [nM] | IC50 [3] [nM] | 1 h Concentration ([5]; ICR mice, oral single dose of 10 mg/kg in 0.5% CMC, 1 h post-dose, Mean ± SEM, n = 3) [ng/mL] | 4 h Concentration ([5]; ICR mice, oral single dose of 10 mg/kg in 0.5% CMC, 4 h post-dose, Mean ± SEM, n = 3) [ng/mL] | 8 h Concentration ([5]; ICR mice, oral single dose of 10 mg/kg in 0.5% CMC, 8 h post-dose, Mean ± SEM, n = 3) [ng/mL] | Weight loss ([4]; later phase) [%] |
| --- | --- | --- | --- | --- | --- | --- | --- | --- | --- | --- | --- | --- | --- |
| CCc1nn(C)c(C)c1NS(=O)(=O)c1c(Cl)cc(-c2ccc3sc4c(c3c2)CNCC4)cc1Cl [Compound 2] | 5.43 | significantly inhibited the growth of MV-4-11 tumors and induced tumor regression | 3.09 | slight decrease in body weight during the early phase of dosing, which subsequently returned to normal | 2890 ± 858 | 1960 ± 190 | 915 ± 97 | – | – | – | – | – | – |
| Cc1c(NS(=O)(=O)c2c(Cl)cc(-c3ccc4sc5c(c4c3)CNCC5)cc2Cl)c(CC(C)C)nn1C [Compound 3] | 15 | significantly inhibited the growth of MV-4-11 tumors and induced tumor regression | 3.45 | no weight loss throughout the study | 2407 ± 21 | 1980 ± 417 | 1140 ± 551 | – | – | – | – | – | – |
| Cc1c(NS(=O)(=O)c2c(Cl)cc(-c3ccc4sc5c(c4c3)CNCC5)cc2Cl)c(CC#N)nn1C [Compound 13] | – | significantly inhibited the growth of MV-4-11 tumors and induced tumor regression | – | no weight loss throughout the study | – | – | – | 19.3 | 3.21 | 1893 ± 196 | 623 ± 109 | 334 ± 83 | – |
| Cc1c(NS(=O)(=O)c2c(Cl)cc(-c3ccc4oc5c(c4c3)CNCC5)cc2Cl)c(CC(C)C)nn1C [Compound 45] | 43.7 | significantly inhibited the growth of MV-4-11 tumors and induced tumor regression | 5.38 | slight weight loss in the later phase | 2970 ± 855 | 3260 ± 876 | 1960 ± 467 | – | – | – | – | – | ≤ 10 |

Source: patent EP4810492A1, “NMT INHIBITOR, PREPARATION METHOD THEREFOR, AND USE THEREOF” (Nanjing Synnocare Pharmaceutical Technology Co., Ltd., priority 2023, dated 2025)
